Values of other authors as cited in US7300768B2 (Saladax Biomedical Inc., priority 2004, dated 2007).

Conditions: imatinib and its salts; Gleevec package insert, Pindolia et al.

Cc1ccc(NC(=O)c2ccc(CN3CCN(C)CC3)cc2)cc1Nc1nccc(-c2cccnc2)n1 [imatinib]
degree of intra- and inter-individual pharmacokinetic variability: four fold
